Data taken from patent publication US20250041277A1, “METHODS AND DOSING REGIMENS COMPRISING A CDK2 INHIBITOR AND A CDK4 INHIBITOR FOR TREATING CANCER” (PFIZER INC., priority 2021, published 2025).
Marks after values point to notes of the source that are not given here.

Assays:
[1] = test system: NCI-H1792 lung adenocarcinoma (LUAD) cells; assay: Spheroid growth inhibition (SGI) assay, NCI-H1792; format: cell-based; details: NCI-H1792 spheroids; 30 nM palbociclib, 300 nM PF-07220060, 300 nM PF-07104091; 14 days
Protocol: (§1) NCI-H1792 and NCI-H23 lung adenocarcinoma (LUAD) cells lines were obtained from ATCC and maintained in RPMI 1640 medium supplemented with 10% fetal bovine serum and penicillin-streptomycin as per ATCC guidelines. Cells were maintained in humidified incubator at 37° C. with 5% CO2.
(§2) Spheroid assays were performed in 96 well ultralow attachment plates (ULA-96U) from Nexcelom & Thermo Fisher Scientific. […] To aid spheroid formation, dispensed cells were centrifuged at 220×g for 6 minutes in the ultralow attachment plates and allowed to form compact spheroids for 4 days prior to the initiation of treatment. […] DMSO (0.01%) was used as the vehicle control. DMSO and all compounds were diluted in cell medium. Medium and compounds were replenished twice per week, with 3 and 4-day intervals. Replenishment was executed by aspirating 150 μL of medium per well without disturbing the spheroid and then adding the same volume of premixed medium/compound solution to spheroids. Spheroid diameter was quantified immediately following each medium change twice a week (on every 3rd or 4th day) throughout the duration of the assay.
(§3) Average diameters of tumor spheroids were plotted in GraphPad Prism 8 and the AUC calculated. AUC baseline was determined by the average tumor spheroid diameter at Day 0 in the vehicle (DMSO) controls. Spheroid growth inhibition, or SGI, was calculated as follows: SGI=(1−AUC treatment/AUC DMSO)×100%. SGI for all treatment arms was derived at the timepoint when the vehicle (DMSO) treated spheroids reach their maximal diameter (usually close to 1 mm but this can differ among cell lines); this corresponds to the last time point taken for the vehicle (DMSO) treated spheroids. SEM was calculated based on n=10 to 12 wells per test group.
(§4) Growth of lung adenocarcinoma multicellular tumor spheroids (MCTS) was monitored over time to assess: (i) amplitude of response (SGI) and (ii) duration of response to the CDK4 inhibitor PF-07220060 as a single agent, and in combination with the CDK2 inhibitor PF-07104091.

[2] = test system: NCI-H23 lung adenocarcinoma (LUAD) cells; assay: Spheroid growth inhibition (SGI) assay, NCI-H23; format: cell-based; details: NCI-H23 spheroids; 30 nM palbociclib, 300 nM PF-07220060, 300 nM PF-07104091; 14 days
Protocol: as §1, §2, §3, §4

[3] = test system: T47D breast cancer model; assay: In vivo efficacy, HR+/HER2− T47D breast cancer model (Example 3); design: species or system NSG mice; details: Day 41, PO BID: PF-07104091 150 mpk, PF-07220060 60 mpk, palbociclib 10 mpk
Protocol: (§5) Female NSG mice (Jackson Lab) were subcutaneously implanted with fragment (27 mm^3 to 64 mm^3 size) into the dorsal region. All mice for T47D, HCC1428 and ST941 PBR studies were supplemented with 8.5 μg/mL estradiol water (β-Estradiol Sigma-Aldrich, cat #E2758-5G) and gave ad libitum till end of study. For the in vivo efficacy studies, tumor volume and body weights were measured twice a week. Tumor volume was calculated using the [(Length×Width×Width)/2)] formula. TGI was calculated as 100*(1−ΔT/ΔC). The ΔC (ΔT) was obtained by subtracting the mean tumor burden in the vehicle (treated) group on the first day of treatment (Day 0) from the mean tumor burden in vehicle (treated) group on the assessment day. Statistical analysis was performed using ANCOVA when the mean tumor volume in vehicle treated mice reached tumor cutoff size.
(§6) The T47D model was established by implanting passage 3 tumor fragments into recipient mice. To establish the T47D donor mice, tumor cells (5×10^6 cell/mouse with 50% Cultrex® Basement Membrane Matrix) were subcutaneously implanted in female NSG mice. Once reaching a range of 700 to 800 mm^3, donor tumors were subsequently transplanted into secondary recipient mice for a study expansion. […] PF-07104091 (lot 016), PF-07220060 (lot 019) and PD-0332991 (lot GR08498) were administered (PO.) BID (7 hr apart). All mice received treatment continuously until Day 41. TGI was assessed on Day 41 post first dose.

[4] = test system: HCC1428 breast cancer model; assay: In vivo efficacy, HR+/HER2− HCC1428 breast cancer model (Example 3); design: species or system NSG mice; details: HCC1428, Day 42; PO BID: PF-07104091 150 mpk, PF-07220060 60 mpk, palbociclib 10 mpk
Protocol: as §5
as §6, with “The HCC1428” for “The T47D”, “passage 4” for “passage 3”, “the HCC1428” for “the T47D”, “Day 42.” for “Day 41.”, “Day 42” for “Day 41”

[5] = test system: ST941 PBR PDX model; assay: In vivo efficacy, palbociclib-resistant ST941 PBR PDX model (Example 3); design: species or system NSG mice; details: ST941PBR, Day 28; PO BID: PF-07104091 150 mpk, PF-07220060 60 mpk, palbociclib 10 mpk; fulvestrant 10 mpk SC 2x week 1 then weekly
Protocol: as §5
(§7) We established model in house by continuous treatment of the ST941 PBR tumor bearing mice with PD-0332991 at 50 mg/kg, PO QD plus fulvestrant at 10 mg/kg, SC twice in the first week, then weekly thereafter. To propagate donors for the TGI study, tumors were transplanted to recipient mice. One week after the re-implantation, the recipient mice received continuous treatment with palbociclib plus fulvestrant (dosing schedule described above). After 1 to 2 serial in vivo propagation with the same treatment regimen, the resistant tumors in the range of 700 to 800 mm^3 were re-implanted for a study expansion. The remaining tumor fragments were viably frozen for future use.
The live donor mice were established by implanting ST941 PBR (p11) tumor fragments. Once reaching a range of 700 to 800 mm^3, the donor tumors were subsequently transplanted into secondary recipient mice for a study expansion. To maintain the resistant clones, the ST941 PBR tumor bearing mice were treated with PD-0332991 at 50 mg/kg, PO. QD plus fulvestrant at 10 mg/kg, SC twice in the first week, then weekly afterwards for 10 weeks. The treatment was initiated one week after the implant until day of randomization for study enrollment. […] TGI was assessed on Day 28 post first dose.

[6] = test system: MCF7 breast cancer model; assay: In vivo efficacy, HR+/HER2− MCF7 breast cancer model (Example 4); design: species or system NSG mice; details: MCF7, Day 29; PO BID: PF-07104091 120 mpk, PF-07220060 60 mpk, PF-06873600 30 mpk, palbociclib 10 mpk; fulvestrant 10 mpk SC
Protocol: as §5, with “HCC1428, MCF7” for “T47D, HCC1428”
(§8) The MCF7 model was established by implanting donor tumor fragments into recipient mice. To establish the MCF7 donor mice, tumor cells (5×10^6 cell/mouse with 50% Cultrex® Basement Membrane Matrix) were subcutaneously implanted in female NSG mice. Once reaching a range of 700 to 800 mm^3, donor tumors were subsequently transplanted into secondary recipient mice for a study expansion. […] PF-07104091 (lot 022), PF-07220060 (lot CPo126812-01-SY-5700-01), PF-06873600 (lot 022) and PD-0332991 (lot GR08498) were administered (PO) BID (7 hr apart) while fulvestrant (lot 20160224-2) at 10 mg/kg, SC twice in the first week, then weekly afterwards. All mice received treatment continuously until Day 29. TGI was assessed on Day 29 post first dose

[7] = test system: HCC1428 breast cancer model; assay: In vivo efficacy, HR+/HER2− HCC1428 breast cancer model (Example 4); design: species or system NSG mice; details: HCC1428, Day 42; PO BID: PF-07104091 120 mpk, PF-07220060 60 mpk, PF-06873600 30 mpk, palbociclib 10 mpk; fulvestrant 10 mpk SC
Protocol: as §5, with “HCC1428, MCF7” for “T47D, HCC1428”
as §8, with “The HCC1428” for “The MCF7”, “implanting passage 1” for “implanting donor”, “the HCC1428” for “the MCF7”, “Day 42.” for “Day 29.”, “Day 42” for “Day 29”, “first dose.” for “first dose”

[8] = test system: ST941 PBR PDX model; assay: In vivo efficacy, palbociclib-resistant ST941 PBR PDX model (Example 4); design: species or system NSG mice; details: ST941PBR, Day 28, PO BID: PF-07104091 120 mpk, PF-07220060 60 mpk, PF-06873600 30 mpk, palbociclib 10 mpk, fulvestrant 10 mpk SC
Protocol: as §5, with “HCC1428, MCF7” for “T47D, HCC1428”
as §7
The live donor mice were established by implanting ST941 PBR (p13) tumor fragments. Once reaching a range of 700 to 800 mm^3, the donor tumors were subsequently transplanted into secondary recipient mice for a study expansion. To maintain the resistant clones, the ST941 PBR tumor bearing mice were treated with PD-0332991 at 50 mg/kg, PO. QD plus fulvestrant at 10 mg/kg, SC twice in the first week, then weekly afterwards for 10 weeks. The treatment was initiated one week after the implant until day of randomization for study enrollment. […] PF-07104091 (lot 021), PF-07220060 (lot CPo126812-01-SY-5700-01), PF-06873600 (lot 022) and PD-0332991 (lot GR08498) were administered (PO) BID (7 hr apart) while fulvestrant (lot 20160224-2) at 10 mg/kg, SC twice in the first week, then weekly afterwards. All mice received treatment continuously until Day 28. TGI was assessed on Day 28 post first dose.

Row | Structure (SMILES) | SGI (%) [1] [%] | SGI (%) [2] [%] | TGI % [3] | TGI % [4] | TGI % [5] [%] | TGI % [6] [%] | TGI % [7] [%] | TGI % [8] | TGI % ([8]; listed as PF-0873600) [%]
1 | CC(=O)c1c(C)c2cnc(Nc3ccc(N4CCNCC4)cn3)nc2n(C2CCCC2)c1=O [palbociclib, reference compound] | 54 | 9 | 72^* % | 44^* % | 15 | – | – | – | –
2 | C[C@@]1(O)CCC[C@H]1n1c(=O)c(C(F)F)cc2cnc(NC3CCN(S(C)(=O)=O)CC3)nc21 [PF-06873600, reference compound] | – | – | – | – | – | 70 | 97 | 47^* % | 47
